Experimental data: patent publication US9169247B2, “Tetrahydro-beta-carboline derivatives, synthesis and use thereof” (Southern Research Institute, priority 2009, dated 2015)
Like-named read-outs stand apart in the source and are kept apart here.

Experiments:
SK-MEL-28 = assay: Growth assay (Cell Titer Glo); assay type: cell-based; settings: Homo sapiens
Experimental: (§1) All human tumor cell lines were obtained from ATCC and grown under standard cell culture conditions at 37° C. in a humidified atmosphere with 5% CO2. Cells were grown in RPMI 1640 supplemented with 5% fetal bovine serum 2 mM glutamine, 100 units/ml penicillin, 100 units/ml streptomycin, and 0.25 μg/ml amphotericin. Cells were harvested at 70 to 90% confluence with trypsin/EDTA and used immediately Cell count and viability was determined by Trypan blue staining followed by hemocytometry. Only cultures displaying >95% cell viability were used for experiments. HMEC were grown according to the specifications from the supplier (Lonzo).
(§2) Tissue culture microtiter 96-well plates were seeded with cells at a density of 5,000 cells/well. The plates were incubated for 18-24 hours prior to any treatment. All test compounds were solubilized in 100% DMSO and diluted with media to obtain a final DMSO concentration of 0.1%. Cell viability was measured 72 hours after treatment by the Cell Titer Glo Assay (Promega), which is a luminescent assay that is an indicator of live cells as a function of metabolic activity and ATP content. The assay was performed according to manufacturer's specifications. Luminescence was measured by a Perkin Elmer Victor® multi-label plate reader.^6
(§3) Dose response curves were analyzed using Prism™ 4 software (GraphPad) to calculate IC50 values using a four parameter logistic equation.

HCT-116 = assay: Growth assay (Cell Titer Glo); assay type: cell-based; settings: Homo sapiens; HCT-116, colon
Experimental: as §1, §2, §3

OVCAR-8 = assay: Growth assay (Cell Titer Glo); assay type: cell-based; settings: Homo sapiens; OVCAR-8, ovarian
Experimental: as §1, §2, §3

NCI-ADR-RES = assay: Growth assay (Cell Titer Glo); assay type: cell-based; settings: Homo sapiens, multi-drug resistant
Experimental: as §1, §2, §3

OVCAR-4 = assay: Growth assay (Cell Titer Glo); assay type: cell-based; settings: Homo sapiens; OVCAR-4, ovarian
Experimental: as §1, §2, §3

[1] = tested on: human MDA-MB-231 breast tumor cells; assay: Growth assay (Cell Titer Glo); assay type: cell-based; settings: Homo sapiens
Experimental: as §1, §2, §3

IGROVI = assay: Growth assay (Cell Titer Glo); assay type: cell-based; settings: Homo sapiens; IGROVI / IGROV-1, ovarian
Experimental: as §1, §2, §3

UACC-62 = assay: Growth assay (Cell Titer Glo); assay type: cell-based; settings: Homo sapiens; UACC-62, melanoma
Experimental: as §1, §2, §3

MOLT-4 = assay: Growth assay (Cell Titer Glo); assay type: cell-based; settings: Homo sapiens; MOLT-4, hematopoietic
Experimental: as §1, §2, §3

MCF-7 = assay: Growth assay (Cell Titer Glo); assay type: cell-based; settings: Homo sapiens, MCF7; MCF-7, breast
Experimental: as §1, §2, §3

EKVX = assay: Growth assay (Cell Titer Glo); assay type: cell-based; settings: Homo sapiens, lung
Experimental: as §1, §2, §3

SW-620 = assay: Growth assay (Cell Titer Glo); assay type: cell-based; settings: Homo sapiens; SW-620, colon
Experimental: as §1, §2, §3

UO-31 = assay: Growth assay (Cell Titer Glo); assay type: cell-based; settings: Homo sapiens; UO-31, renal
Experimental: as §1, §2, §3

MALME-3M = assay: Growth assay (Cell Titer Glo); assay type: cell-based; settings: Homo sapiens, melanoma
Experimental: as §1, §2, §3

PC-3 = assay: Growth assay (Cell Titer Glo); assay type: cell-based; settings: Homo sapiens; PC-3, prostate
Experimental: as §1, §2, §3

HL-60(TB) = assay: Growth assay (Cell Titer Glo); assay type: cell-based; settings: Homo sapiens, hematopoietic
Experimental: as §1, §2, §3

LOX IMVI = assay: Growth assay (Cell Titer Glo); assay type: cell-based; settings: Homo sapiens; LOX IMVI / LOX IMV1, melanoma
Experimental: as §1, §2, §3

SKOV-3 = assay: Growth assay (Cell Titer Glo); assay type: cell-based; settings: Homo sapiens; SKOV-3 / SK-OV-3, ovarian
Experimental: as §1, §2, §3

SF-539 = assay: Growth assay (Cell Titer Glo); assay type: cell-based; settings: Homo sapiens; SF-539, CNS
Experimental: as §1, §2, §3

SNB-75 = assay: Growth assay (Cell Titer Glo); assay type: cell-based; settings: Homo sapiens; SNB-75, CNS
Experimental: as §1, §2, §3

DU-145 = assay: Growth assay (Cell Titer Glo); assay type: cell-based; settings: Homo sapiens; DU-145, prostate
Experimental: as §1, §2, §3

SF-268 = assay: Growth assay (Cell Titer Glo); assay type: cell-based; settings: Homo sapiens; SF-268, CNS
Experimental: as §1, §2, §3

RPMI-8226 = assay: Growth assay (Cell Titer Glo); assay type: cell-based; settings: Homo sapiens; RPMI-8226, hematopoietic
Experimental: as §1, §2, §3

NCI-H322M = assay: Growth assay (Cell Titer Glo); assay type: cell-based; settings: Homo sapiens, lung
Experimental: as §1, §2, §3

SNB-19 = assay: Growth assay (Cell Titer Glo); assay type: cell-based; settings: Homo sapiens; SNB-19, CNS
Experimental: as §1, §2, §3

T-47D = assay: Growth assay (Cell Titer Glo); assay type: cell-based; settings: Homo sapiens, T47D, breast
Experimental: as §1, §2, §3

NCI-H23 = assay: Growth assay (Cell Titer Glo); assay type: cell-based; settings: Homo sapiens; NCI-H23, lung
Experimental: as §1, §2, §3

RXF-393 = assay: Growth assay (Cell Titer Glo); assay type: cell-based; settings: Homo sapiens; RXF-393, renal
Experimental: as §1, §2, §3

SN12C = assay: Growth assay (Cell Titer Glo); assay type: cell-based; settings: Homo sapiens, renal
Experimental: as §1, §2, §3

KM12 = assay: Growth assay (Cell Titer Glo); assay type: cell-based; settings: Homo sapiens; KM12, colon
Experimental: as §1, §2, §3

ACHN = assay: Growth assay (Cell Titer Glo); assay type: cell-based; settings: Homo sapiens, renal
Experimental: as §1, §2, §3

OVCAR-5 = assay: Growth assay (Cell Titer Glo); assay type: cell-based; settings: Homo sapiens; OVCAR-5, ovarian
Experimental: as §1, §2, §3

HT-29 = assay: Growth assay (Cell Titer Glo); assay type: cell-based, human; settings: HT-29 colon
Experimental: Compounds 2a-h were tested for tumor cell growth inhibitory activity using the human breast MDA-MB-231 and ZR75-1 tumor cell lines and the colon CACO-2, SW-1116, and HT-29 tumor cell lines.
as §1, §2, §3

[2] = tested on: human Caki-1 renal tumor cell line; assay: Growth assay (Cell Titer Glo); assay type: cell-based
Experimental: FIGS. 3A-B illustrate the anticancer activity of compound 2j. […] The cells with treated for 72 hours prior to measuring cell viability using the Cell Titer Glo assay (Promega Corp.). […] Tumor bearing mice were treated at a dose of 10 mg/kg one time per day for 22 days.
as §1, with “HMEC were grown according to the specifications from the supplier (Lonzo).” left out
Tissue culture microtiter 96-well plates were seeded with cells at a density of 5,000 cells/well. […] Cell viability was measured 72 hours after treatment by the Cell Titer Glo Assay (Promega), which is a luminescent assay that is an indicator of live cells as a function of metabolic activity and ATP content. […] Luminescence was measured by a Perkin Elmer Victor® multi-label plate reader.^6
as §3

Row | Compound | IC50 (SK-MEL-28) [nM] | IC50 (HCT-116) [nM] | IC50 (OVCAR-8) [nM] | IC50 (NCI-ADR-RES) [nM] | IC50 (OVCAR-4) [nM] | IC50 (IGROVI) [nM] | IC50 (UACC-62) [nM] | IC50 (MOLT-4) [nM] | IC50 (MCF-7) [nM] | IC50 (EKVX) [nM] | IC50 (SW-620) [nM] | IC50 (UO-31) [nM] | IC50 (MALME-3M) [nM] | IC50 (PC-3) [nM] | IC50 (HL-60(TB)) [nM] | IC50 (LOX IMVI) [nM] | IC50 (SKOV-3) [nM] | IC50 (SF-539) [nM] | IC50 (SNB-75) [nM] | IC50 (DU-145) [nM] | also measured
1 | COC(=O)[C@H]1Cc2c([nH]c3ccccc23)[C@H](c2cc(OC)ccc2OC)N1C(=O)CCl [Compound 2f, Methyl (1S,3R)-1-(2,5-dimethoxyphenyl)-2-(2-chloroacetyl)-2,3,4,9-tetrahydro-1H-β-carboline-3-carboxylate] | 485 | > 10000 | 68 | 23 | 15 | 10 | 119 | 161 | 3750 | 14 | 3310 | < 9 | 132 | 192 | 17 | 4 | 60 | 34 | 63 | 232 | IC50 ([1]; MDA-MB-231, 72 h, MDA-MB-231 breast, 72 h, Tables 3-5, read-out: IC50 value, μM, growth): 0.006 µM; IC50 (SF-268): 690 nM; IC50 (RPMI-8226): 17 nM; IC50 (NCI-H322M): 2460 nM; IC50 (SNB-19): 131 nM; IC50 (T-47D): 973 nM; IC50 (NCI-H23): 13 nM; IC50 (RXF-393): 3 nM; IC50 (SN12C): 375 nM; IC50 (KM12): 1370 nM; IC50 (ACHN): 1.3 nM; IC50 (OVCAR-5): 1000 nM; IC50 (HT-29; 72 h): 0.452 µM; IC50 (HT-29; Homo sapiens, HT-29, 72 h): 0.45 µM; IC50 ([2]; CAKI-1, CAKI-1, renal, read-out: IC50): < 6 nM; melting point: 232 °C
2 | COC(=O)[C@H]1Cc2c([nH]c3ccccc23)[C@H](c2ccc(Cl)cc2Cl)N1C(=O)CCl [Compound 2j, (1S,3R) Methyl 1-(2,4-dichlorophenyl)-2-(2-chloroacetyl)-2,3,4,9-tetrahydro-1H-β-carboline-3-carboxylate] | 1040 | > 3000 | 50 | 20 | 50 | 20 | 290 | 130 | > 3000 | 20 | 2750 | 5 | > 3000 | 340 | 40 | < 1 | 320 | 160 | 100 | > 3000 | inhibition at 10 µM ([1]; MDA-MB-231, MDA-MB-231, 10 μM, mean +/− spread): 98%; IC50 ([1]; MDA-MB-231, MDA-MB-231, Tables 1 and 2, read-out: Growth Inhibition IC50, μM (95% CI)): 0.07 µM; IC50 (SF-268): 100 nM; IC50 (RPMI-8226): 80 nM; IC50 (NCI-H322M): > 3000 nM; IC50 (SNB-19): 1040 nM; IC50 (T-47D): 120 nM; IC50 (NCI-H23): > 3000 nM; IC50 (RXF-393): 15 nM; IC50 (SN12C): > 3000 nM; IC50 (KM12): 630 nM; IC50 (ACHN): 10 nM; IC50 (OVCAR-5): 490 nM; IC50 (HT-29; Homo sapiens, HT-29, 72 h): 0.65 µM; IC50 ([2]; CAKI-1, 72 h, FIG. 3A legend, read-out: IC50 value, tumor cell growth): 2.3 nM; melting point: 106 to 109 °C
